From patent US11149008B2, “Sulfamide derivatives and preparation method and use thereof” (HitGen Ltd., priority 2015, dated 2021)

Biological target: T1, HDAC 6 (Homo sapiens, UniProt Q9UBN7)
T1 construct: purchased BPS Bioscience #50076
T1 sequence (Q9UBN7 1-1215): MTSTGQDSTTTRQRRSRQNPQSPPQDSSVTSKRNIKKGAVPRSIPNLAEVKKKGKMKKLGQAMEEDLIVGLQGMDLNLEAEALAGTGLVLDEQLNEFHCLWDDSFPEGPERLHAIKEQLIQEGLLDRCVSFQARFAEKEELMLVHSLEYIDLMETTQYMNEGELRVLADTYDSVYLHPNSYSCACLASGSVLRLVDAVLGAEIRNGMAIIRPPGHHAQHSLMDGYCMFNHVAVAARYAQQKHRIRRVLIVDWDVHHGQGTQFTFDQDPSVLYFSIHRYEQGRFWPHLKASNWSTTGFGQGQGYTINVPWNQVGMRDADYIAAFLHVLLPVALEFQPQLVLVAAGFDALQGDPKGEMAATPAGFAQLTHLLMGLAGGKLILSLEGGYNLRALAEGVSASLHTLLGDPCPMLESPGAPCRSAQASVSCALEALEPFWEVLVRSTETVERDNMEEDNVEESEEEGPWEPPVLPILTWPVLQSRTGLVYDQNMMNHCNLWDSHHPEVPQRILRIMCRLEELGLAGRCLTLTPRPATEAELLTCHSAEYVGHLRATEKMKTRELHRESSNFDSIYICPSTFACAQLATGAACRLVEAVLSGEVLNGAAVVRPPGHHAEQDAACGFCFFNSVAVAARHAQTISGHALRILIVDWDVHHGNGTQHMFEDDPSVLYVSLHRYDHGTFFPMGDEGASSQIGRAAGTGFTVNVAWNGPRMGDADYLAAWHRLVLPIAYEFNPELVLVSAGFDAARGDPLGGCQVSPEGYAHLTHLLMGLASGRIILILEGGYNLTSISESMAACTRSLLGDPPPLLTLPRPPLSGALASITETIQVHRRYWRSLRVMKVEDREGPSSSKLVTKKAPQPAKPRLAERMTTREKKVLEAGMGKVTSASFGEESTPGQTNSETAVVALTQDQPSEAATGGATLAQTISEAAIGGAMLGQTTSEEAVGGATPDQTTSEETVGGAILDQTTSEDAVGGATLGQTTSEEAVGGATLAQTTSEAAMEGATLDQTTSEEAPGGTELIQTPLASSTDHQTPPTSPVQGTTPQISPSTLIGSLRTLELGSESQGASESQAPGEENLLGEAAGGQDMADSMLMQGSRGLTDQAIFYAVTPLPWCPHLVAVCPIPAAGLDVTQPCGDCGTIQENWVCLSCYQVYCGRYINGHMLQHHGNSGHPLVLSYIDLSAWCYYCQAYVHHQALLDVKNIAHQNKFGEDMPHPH
Assay: Enzyme activity detection of histone deacetylase 6 (fluorogenic substrate deacetylation)
Type: biochemical
Details: 0.35 ng/μL HDAC 6, 20 μM substrate, 30 min at 37° C.; IC50 class
Excerpt: During the deacetylation detection of a substrate, the HDAC inhibition activity of the compound of the present invention was detected.
A: Enzyme Activity Detection of Histone Deacetylase 6 (#50076, BPS Bioscience)
Acetyl on the substrate was removed by the HDAC 6, so that the substrate was activated, and the developing liquid added subsequently could act on the substrate to release the fluorescent group. The size of the fluorescence signal reflected the activity of the HDAC 6. The IC50 detection method for this enzyme was disclosed in Chuping Xu, Elisabetta Soragni Improved Histone Deacetylase Inhibitors as Therapeutics for the Neurdegenerative Disease Friedreich's Ataxia: A New Synthetic Route. The total reaction system (100 μL/well) contained 0.35 ng/μL of HDAC 6, 20 μM of the substrate and the compound in different concentrations. The reaction system was incubated for 30 min at 37° C., and the fluorescence signal was then measured. The inhibition effect of the compound was determined from the obtained data, a concentration response curve was obtained by using the inhibition effect and the concentration of the compound, and the value of IC50 was fitted according to a four-parameter model.
The activities of the compounds prepared in the embodiments against the histone deacetylases 1, 3 and 6 (i.e., HDAC 1, HDAC 3 and HDAC 6) were detected by the above methods, and the test results were shown in Table 2, where the measurements of IC50 of the compounds were classified according to the following description: […]

IC50: < 100 nM
Compound: CN1CCN(c2ccc(-c3ccc(S(=O)(=O)N4CC=C(C(=O)NO)CC4)cc3)cc2)CC1 [Compound 29, N-hydroxyl-1-((4′-(4-methylpiperazinyl)-[1,1′-biphenyl]-4-yl)sulfonyl)-1,2,3,6-tetrahydropyridine-4-formamide]
